Consider four compounds from ChEMBL document CHEMBL5212743, “Selectivity Literature for EUbOPEN Chemogenomics Library wave 3” (2023).

SMILES strings stand for the structures.

The IC50 is the concentration at which inhibition is half-maximal. As usually defined, the Ki is a measure of affinity in units of concentration, obtained from inhibition or displacement. Low values mean a stronger hold on the target, high ones a looser hold on the target.

For assay [1], the target named is Phosphatidylinositol 3-kinase C2 domain-containing subunit gamma (Homo sapiens) (UniProt O75747). The assay can be described thus: Selectivity interaction (KinomeScan (DiscoverX)) EUB0000007b PIK3C2G. To be noted: at 1 µM.
For assay [2], the target named is Transcription initiation factor TFIID subunit 1 (Homo sapiens, UniProt P21675). The assay can be described thus: Selectivity interaction (BRD panel (HTRF assay)) EUB0000007b TAF1. For orientation: Time-resolved FRET reads energy transfer from a long-lived donor to a nearby acceptor.
Transcription initiation factor TFIID subunit 1, sequence (P21675 whole entry): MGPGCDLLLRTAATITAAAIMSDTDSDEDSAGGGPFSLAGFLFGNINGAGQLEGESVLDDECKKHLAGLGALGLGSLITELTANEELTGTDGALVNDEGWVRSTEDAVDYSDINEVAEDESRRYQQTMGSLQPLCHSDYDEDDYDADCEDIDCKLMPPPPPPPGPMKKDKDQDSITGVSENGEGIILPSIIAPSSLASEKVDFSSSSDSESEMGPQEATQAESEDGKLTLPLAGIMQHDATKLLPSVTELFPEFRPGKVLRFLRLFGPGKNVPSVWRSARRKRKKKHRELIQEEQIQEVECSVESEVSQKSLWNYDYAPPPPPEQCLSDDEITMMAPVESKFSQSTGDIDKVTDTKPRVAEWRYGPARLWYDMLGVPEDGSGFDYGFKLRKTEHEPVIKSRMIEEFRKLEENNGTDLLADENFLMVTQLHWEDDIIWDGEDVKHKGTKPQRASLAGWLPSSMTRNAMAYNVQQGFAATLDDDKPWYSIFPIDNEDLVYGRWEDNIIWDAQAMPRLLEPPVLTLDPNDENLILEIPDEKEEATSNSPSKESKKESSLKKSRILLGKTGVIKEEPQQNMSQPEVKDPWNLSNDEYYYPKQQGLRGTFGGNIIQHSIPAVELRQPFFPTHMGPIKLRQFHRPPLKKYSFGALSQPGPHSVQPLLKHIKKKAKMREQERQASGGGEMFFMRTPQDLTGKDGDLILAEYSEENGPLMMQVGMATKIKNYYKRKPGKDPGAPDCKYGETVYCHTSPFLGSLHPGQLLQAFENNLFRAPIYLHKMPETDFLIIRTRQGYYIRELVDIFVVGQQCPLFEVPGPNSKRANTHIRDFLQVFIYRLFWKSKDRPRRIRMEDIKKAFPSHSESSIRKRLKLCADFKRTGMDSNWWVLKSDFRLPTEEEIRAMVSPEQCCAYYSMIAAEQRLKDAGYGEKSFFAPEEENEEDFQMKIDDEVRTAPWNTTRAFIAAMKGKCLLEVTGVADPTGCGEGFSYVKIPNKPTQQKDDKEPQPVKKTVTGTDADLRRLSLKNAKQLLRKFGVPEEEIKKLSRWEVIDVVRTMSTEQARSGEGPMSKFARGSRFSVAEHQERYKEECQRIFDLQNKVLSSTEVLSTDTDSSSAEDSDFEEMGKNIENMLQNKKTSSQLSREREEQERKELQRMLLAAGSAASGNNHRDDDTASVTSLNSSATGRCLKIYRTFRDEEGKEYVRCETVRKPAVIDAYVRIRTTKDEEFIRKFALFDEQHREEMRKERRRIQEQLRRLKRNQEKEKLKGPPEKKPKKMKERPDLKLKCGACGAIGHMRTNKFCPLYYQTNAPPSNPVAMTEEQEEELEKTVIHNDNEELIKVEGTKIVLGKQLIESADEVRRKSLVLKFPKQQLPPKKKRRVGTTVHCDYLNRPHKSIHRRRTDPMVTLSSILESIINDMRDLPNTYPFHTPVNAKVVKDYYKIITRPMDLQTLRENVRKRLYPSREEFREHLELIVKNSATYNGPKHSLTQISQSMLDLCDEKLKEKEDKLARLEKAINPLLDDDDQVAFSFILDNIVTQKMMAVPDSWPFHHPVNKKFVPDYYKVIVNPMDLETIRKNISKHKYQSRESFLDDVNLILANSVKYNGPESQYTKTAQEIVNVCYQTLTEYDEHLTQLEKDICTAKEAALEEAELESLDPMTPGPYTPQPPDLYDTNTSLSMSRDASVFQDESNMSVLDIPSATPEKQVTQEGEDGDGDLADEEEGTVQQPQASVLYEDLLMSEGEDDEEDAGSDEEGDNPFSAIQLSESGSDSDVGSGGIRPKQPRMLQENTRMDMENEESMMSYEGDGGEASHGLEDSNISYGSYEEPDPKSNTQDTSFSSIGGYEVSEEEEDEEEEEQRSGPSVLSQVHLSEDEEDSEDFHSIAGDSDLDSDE
The target of assay [3] is T1, Alpha-1B adrenergic receptor (Homo sapiens, UniProt P35368).
T1 sequence (P35368 whole entry): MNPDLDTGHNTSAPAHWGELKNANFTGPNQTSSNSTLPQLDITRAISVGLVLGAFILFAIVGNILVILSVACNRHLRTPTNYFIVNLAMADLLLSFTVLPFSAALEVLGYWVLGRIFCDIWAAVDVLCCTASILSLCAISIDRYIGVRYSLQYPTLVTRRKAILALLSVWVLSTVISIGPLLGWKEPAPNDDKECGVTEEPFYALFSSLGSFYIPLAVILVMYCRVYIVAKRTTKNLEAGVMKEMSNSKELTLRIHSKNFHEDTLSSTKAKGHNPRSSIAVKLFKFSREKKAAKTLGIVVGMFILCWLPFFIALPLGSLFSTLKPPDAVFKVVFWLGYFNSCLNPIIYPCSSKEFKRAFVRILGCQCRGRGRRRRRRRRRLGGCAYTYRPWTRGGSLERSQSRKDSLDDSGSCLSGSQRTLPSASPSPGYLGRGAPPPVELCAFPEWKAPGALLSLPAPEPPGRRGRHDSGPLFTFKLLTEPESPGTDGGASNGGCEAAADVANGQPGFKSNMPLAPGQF
As to the kind of experiment: Selectivity interaction (Receptors and enzyme panel (internal screening at GSK)) EUB0000215b ADRA1B.

In assay [4] the target is T2, Histone-lysine N-methyltransferase EZH1 (Homo sapiens, UniProt Q92800).
T2 sequence (Q92800 whole entry): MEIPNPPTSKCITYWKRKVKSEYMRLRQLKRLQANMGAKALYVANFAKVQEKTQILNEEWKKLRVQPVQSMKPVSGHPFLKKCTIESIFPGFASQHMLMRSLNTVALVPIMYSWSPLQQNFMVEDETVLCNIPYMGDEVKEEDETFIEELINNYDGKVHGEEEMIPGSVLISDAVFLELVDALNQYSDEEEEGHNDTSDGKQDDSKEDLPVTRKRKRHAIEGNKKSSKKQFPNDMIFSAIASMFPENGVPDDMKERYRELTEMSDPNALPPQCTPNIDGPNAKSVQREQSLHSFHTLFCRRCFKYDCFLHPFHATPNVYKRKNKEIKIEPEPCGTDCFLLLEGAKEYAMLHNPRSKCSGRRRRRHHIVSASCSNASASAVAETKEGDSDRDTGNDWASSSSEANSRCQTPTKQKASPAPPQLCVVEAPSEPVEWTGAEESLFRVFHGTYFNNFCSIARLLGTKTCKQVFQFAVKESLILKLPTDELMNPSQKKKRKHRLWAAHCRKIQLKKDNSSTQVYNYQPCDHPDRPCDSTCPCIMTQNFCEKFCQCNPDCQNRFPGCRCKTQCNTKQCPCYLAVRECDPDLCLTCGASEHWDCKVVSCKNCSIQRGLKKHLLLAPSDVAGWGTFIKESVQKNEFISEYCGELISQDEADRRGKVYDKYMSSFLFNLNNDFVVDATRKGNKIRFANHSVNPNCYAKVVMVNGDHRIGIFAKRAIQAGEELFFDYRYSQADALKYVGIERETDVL
As to the kind of experiment: Selectivity interaction (Methyltransferase panel (HotSpot screen, Reaction Biology, radioisotope-based filter binding assays)) EUB0000215b EZH1.

For assay [5], the target named is Mitogen-activated protein kinase kinase kinase kinase 5 (Homo sapiens) (UniProt Q9Y4K4). To be noted: at 1 µM.
Mitogen-activated protein kinase kinase kinase kinase 5 (Homo sapiens), sequence (Q9Y4K4 whole entry, looked up): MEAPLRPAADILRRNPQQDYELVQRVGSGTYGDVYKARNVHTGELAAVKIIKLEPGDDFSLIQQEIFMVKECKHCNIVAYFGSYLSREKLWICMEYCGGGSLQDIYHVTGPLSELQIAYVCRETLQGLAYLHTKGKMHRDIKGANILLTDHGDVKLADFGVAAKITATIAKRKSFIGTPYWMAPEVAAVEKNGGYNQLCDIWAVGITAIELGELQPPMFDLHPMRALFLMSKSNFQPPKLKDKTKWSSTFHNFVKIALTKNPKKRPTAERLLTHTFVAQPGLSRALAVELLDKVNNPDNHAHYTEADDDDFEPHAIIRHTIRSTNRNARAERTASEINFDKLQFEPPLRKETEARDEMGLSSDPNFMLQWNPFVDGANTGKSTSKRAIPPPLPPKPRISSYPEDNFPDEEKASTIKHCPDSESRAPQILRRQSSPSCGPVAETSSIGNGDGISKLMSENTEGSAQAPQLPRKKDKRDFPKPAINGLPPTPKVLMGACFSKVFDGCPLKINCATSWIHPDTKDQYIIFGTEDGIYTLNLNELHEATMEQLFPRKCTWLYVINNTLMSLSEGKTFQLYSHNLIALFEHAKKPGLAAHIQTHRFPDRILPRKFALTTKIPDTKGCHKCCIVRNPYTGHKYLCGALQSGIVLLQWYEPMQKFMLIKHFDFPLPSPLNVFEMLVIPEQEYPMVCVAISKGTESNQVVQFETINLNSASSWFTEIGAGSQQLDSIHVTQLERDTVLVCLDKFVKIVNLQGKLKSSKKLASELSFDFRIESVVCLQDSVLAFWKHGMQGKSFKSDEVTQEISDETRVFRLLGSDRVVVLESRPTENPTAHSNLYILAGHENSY
Assay [6] concerns the target Epidermal growth factor receptor (Homo sapiens, UniProt P00533). To be noted: at 1 µM.
Assay [7] has as its target Sodium channel regulatory subunit beta-2 (Homo sapiens, UniProt O60939). As to the kind of experiment: Selectivity interaction (Enzyme and Receptor panel (MSD Pharma/Taiwan)) EUB0000753a SCN2B.
The target in assay [8] is Mitogen-activated protein kinase kinase kinase kinase 4 (Homo sapiens) (UniProt O95819). To be noted: at 1 µM.
Mitogen-activated protein kinase kinase kinase kinase 4 (Homo sapiens), sequence (O95819 2-1239 limits assumed): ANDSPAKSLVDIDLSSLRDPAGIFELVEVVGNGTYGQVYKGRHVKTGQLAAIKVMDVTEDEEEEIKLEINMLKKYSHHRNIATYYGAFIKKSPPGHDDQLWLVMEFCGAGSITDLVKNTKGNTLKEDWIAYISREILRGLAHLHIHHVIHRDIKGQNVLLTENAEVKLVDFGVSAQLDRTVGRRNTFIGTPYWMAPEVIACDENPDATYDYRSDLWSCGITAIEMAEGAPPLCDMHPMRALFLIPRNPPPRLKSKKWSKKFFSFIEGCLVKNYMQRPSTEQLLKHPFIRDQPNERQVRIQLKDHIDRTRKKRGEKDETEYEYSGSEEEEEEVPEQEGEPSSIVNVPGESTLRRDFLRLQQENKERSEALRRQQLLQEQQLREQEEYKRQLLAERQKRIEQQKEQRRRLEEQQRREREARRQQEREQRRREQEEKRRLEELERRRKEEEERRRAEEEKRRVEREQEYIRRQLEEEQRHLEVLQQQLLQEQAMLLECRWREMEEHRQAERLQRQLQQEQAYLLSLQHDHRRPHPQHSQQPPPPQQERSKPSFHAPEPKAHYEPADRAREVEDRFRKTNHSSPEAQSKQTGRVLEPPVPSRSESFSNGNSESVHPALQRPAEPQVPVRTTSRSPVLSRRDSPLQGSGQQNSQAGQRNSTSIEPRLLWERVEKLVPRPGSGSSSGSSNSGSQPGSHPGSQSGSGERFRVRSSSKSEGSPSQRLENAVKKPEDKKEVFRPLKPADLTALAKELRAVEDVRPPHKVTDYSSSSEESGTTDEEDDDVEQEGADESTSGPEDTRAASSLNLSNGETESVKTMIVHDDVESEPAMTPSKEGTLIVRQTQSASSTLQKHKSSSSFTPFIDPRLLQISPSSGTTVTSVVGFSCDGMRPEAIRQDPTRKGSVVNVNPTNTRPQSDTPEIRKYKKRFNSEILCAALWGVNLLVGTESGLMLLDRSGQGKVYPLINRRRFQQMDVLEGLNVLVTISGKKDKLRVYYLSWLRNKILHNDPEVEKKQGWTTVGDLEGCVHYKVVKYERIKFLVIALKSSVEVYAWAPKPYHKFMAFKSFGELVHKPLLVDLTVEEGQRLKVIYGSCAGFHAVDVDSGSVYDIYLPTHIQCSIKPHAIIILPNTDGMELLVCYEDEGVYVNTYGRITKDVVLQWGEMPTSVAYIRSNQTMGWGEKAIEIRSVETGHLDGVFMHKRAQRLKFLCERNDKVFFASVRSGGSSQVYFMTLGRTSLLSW
Assay [9] concerns the target Activin receptor type-2A (Homo sapiens) (UniProt P27037). To be noted: at 1 µM.
Assay [10] addresses Sodium-dependent dopamine transporter (Homo sapiens, UniProt Q01959). As to the kind of experiment: Selectivity interaction (GPCR panel (PDSP screen)) EUB0000741a SLC6A3.

Sodium-dependent dopamine transporter, sequence (Q01959 whole entry): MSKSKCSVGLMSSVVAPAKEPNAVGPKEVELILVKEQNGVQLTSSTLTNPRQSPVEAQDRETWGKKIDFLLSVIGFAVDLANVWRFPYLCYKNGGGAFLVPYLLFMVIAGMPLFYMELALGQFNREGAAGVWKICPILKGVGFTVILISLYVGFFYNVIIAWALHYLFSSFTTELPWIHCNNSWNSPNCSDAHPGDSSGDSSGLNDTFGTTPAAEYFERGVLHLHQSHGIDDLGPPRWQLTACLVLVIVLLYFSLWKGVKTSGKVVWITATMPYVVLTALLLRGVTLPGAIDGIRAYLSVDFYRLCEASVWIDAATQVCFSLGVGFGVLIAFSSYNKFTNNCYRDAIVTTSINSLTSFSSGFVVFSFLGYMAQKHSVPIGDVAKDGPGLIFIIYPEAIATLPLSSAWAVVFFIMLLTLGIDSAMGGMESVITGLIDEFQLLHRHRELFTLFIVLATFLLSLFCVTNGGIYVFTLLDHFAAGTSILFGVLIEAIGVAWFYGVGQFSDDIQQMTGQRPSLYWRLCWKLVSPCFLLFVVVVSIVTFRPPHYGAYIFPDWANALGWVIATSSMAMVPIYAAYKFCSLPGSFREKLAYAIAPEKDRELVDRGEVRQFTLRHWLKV
Sodium channel regulatory subunit beta-2, sequence (O60939 whole entry): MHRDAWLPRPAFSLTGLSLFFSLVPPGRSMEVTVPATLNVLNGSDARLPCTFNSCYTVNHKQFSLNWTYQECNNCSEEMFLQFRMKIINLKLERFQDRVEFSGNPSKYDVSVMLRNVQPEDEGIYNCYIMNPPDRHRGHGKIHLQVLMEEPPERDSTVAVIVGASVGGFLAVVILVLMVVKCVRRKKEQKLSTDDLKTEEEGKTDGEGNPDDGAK

In assay [1], `CN(C)C(=O)/C(C#N)=C/c1ccc(-c2nc3cnc4c(ccn4C)c3n2C2CCCCC2)o1` came in with a % of control of 82%. Besides, inhibition in assay [2] was half-maximal at 0.17 µM (IC50).

On to `CCCc1cc(C)[nH]c(=O)c1CNC(=O)c1cc(-c2ccnc(N3CCN(C)CC3)c2)cc2c1cnn2C(C)C`, for which the IC50 in assay [3] was found to be 10 µM; in assay [4] it was 0.24 µM.

Take `COc1cc(-c2cn([C@H]3CCc4c(F)cccc4N(CC(F)(F)F)C3=O)nn2)ccc1-n1cnc(C)c1`: the % of control in assay [5] came out at 5.8%; in assay [6], 0%; in [8] it was 0%; in assay [9], 0%. This compound yielded a 50% inhibitory concentration (IC50) in assay [7] of 1 µM.

With `CC(C)(C)OC(=O)N1CCCC1CNC1CCC(c2cc(F)ccc2F)(S(=O)(=O)c2ccc(Cl)cc2)CC1` (stereo not given) [GSI-NC], the Ki in [10] is > 10 µM.
